ChEMBL document CHEMBL1136456, “Synthesis and biological evaluation of benzazepine oxazolidinone antibacterials” (2003)
Values after ≈ are worked out from the molar mass of the structure shown.

Experiments:
Assay type in all cases: functional
[1] = tested on: Enterococcus faecalis; experiment: Antibacterial activity against Enterococcus faecalis UC9217 (E. f)
[2] = tested on: Staphylococcus epidermidis; experiment: Antibacterial activity against Methicillin-resistant Staphylococcus epidermidis UC12084 (S. e)
[3] = tested on: Streptococcus pneumoniae; experiment: Antibacterial activity against Streptococcus pneumoniae UC9912 (S.p)
[4] = tested on: Staphylococcus aureus; experiment: Antibacterial activity against Methicillin-suceptible Staphylococcus aureus UC9218
[5] = tested on: Haemophilus influenzae; experiment: Antibacterial activity against Haemophilus influenzae UC30063 (Haemophilus influenzae)
[6] = tested on: Staphylococcus aureus; experiment: Antibacterial activity against Methicillin-resistant Staphylococcus aureus UC6685 (S. a.)
[7] = tested on: Moraxella catarrhalis; experiment: Antibacterial activity against Moraxella catarrhalis UC30610 (M. cat)
[8] = tested on: Mus musculus; experiment: Dose (administered orally) required to protect the Staphylococcus aureus infected mice was determined; settings: po

| SMILES | MIC [1] [µg/mL] | MIC [2] [µg/mL] | MIC [3] [µg/mL] | MIC [4] [µg/mL] | MIC [5] [µg/mL] | MIC [6] [µg/mL] | MIC [7] [µg/mL] | ED50 [8] [mg/kg/day] |
| --- | --- | --- | --- | --- | --- | --- | --- | --- |
| CC(=O)NC[C@H]1CN(c2ccc3c(c2)CCCN(C(=O)NC(C)C)C3)C(=O)O1 | 32 (≈ 82.4 µM) | 32 (≈ 82.4 µM) | 8 (≈ 20.6 µM) | 64 (≈ 165 µM) | > 64 | – | – | – |
| CC(=O)NC[C@H]1CN(c2ccc3c(c2)CCCN(C(=O)CO)C3)C(=O)O1 | 4 (≈ 11.1 µM) | 1 (≈ 2.77 µM) | 1 (≈ 2.77 µM) | 4 (≈ 11.1 µM) | 64 (≈ 177 µM) | 4 (≈ 11.1 µM) | 16 (≈ 44.3 µM) | – |
| CC(=O)NC[C@H]1CN(c2ccc3c(c2)NCCCC3)C(=O)O1 | 32 (≈ 105 µM) | 8 (≈ 26.4 µM) | 8 (≈ 26.4 µM) | 32 (≈ 105 µM) | > 64 | 16 (≈ 52.7 µM) | > 64 | – |
| CC(=O)NC[C@H]1CN(c2ccc(N3CCOCC3)c(F)c2)C(=O)O1 [LINEZOLID] | – | 1 (≈ 2.96 µM) | – | – | 16 (≈ 47.4 µM) | – | 8 (≈ 23.7 µM) | 5.6 |
| CC(=O)NC[C@H]1CN(c2ccc3c(c2)CCN(C(=O)CO)CC3)C(=O)O1 | 4 (≈ 11.1 µM) | 1 (≈ 2.77 µM) | < 0.05 | 2 (≈ 5.53 µM) | 32 (≈ 88.5 µM) | 2 (≈ 5.53 µM) | 8 (≈ 22.1 µM) | 8.5 |
| CC(=O)NC[C@H]1CN(c2ccc3c(c2)CCCN(C(=O)OCc2ccccc2)C3)C(=O)O1 | 32 (≈ 73.1 µM) | 16 (≈ 36.6 µM) | 8 (≈ 18.3 µM) | 16 (≈ 36.6 µM) | > 64 | – | – | – |
| COC(=O)N1CCCc2cc(N3C[C@H](CNC(C)=O)OC3=O)ccc2C1 | 4 (≈ 11.1 µM) | 2 (≈ 5.53 µM) | 2 (≈ 5.53 µM) | 8 (≈ 22.1 µM) | > 64 | – | – | – |
| CC(=O)NC[C@H]1CN(c2ccc3c(c2)CCCNC3)C(=O)O1 | > 64 | 32 (≈ 105 µM) | 8 (≈ 26.4 µM) | > 64 | > 64 | – | > 64 | – |
| CC(=O)NC[C@H]1CN(c2ccc3c(c2)CCN(C(=O)OCc2ccccc2)CC3)C(=O)O1 | 4 (≈ 9.14 µM) | 1 (≈ 2.29 µM) | < 0.05 | 4 (≈ 9.14 µM) | > 64 | 2 (≈ 4.57 µM) | 16 (≈ 36.6 µM) | – |
| COC(=O)N1CCc2ccc(N3C[C@H](CNC(C)=O)OC3=O)cc2CC1 | 2 (≈ 5.53 µM) | 1 (≈ 2.77 µM) | 1 (≈ 2.77 µM) | 4 (≈ 11.1 µM) | > 64 | – | – | – |
| CC(=O)NC[C@H]1CN(c2ccc3c(c2)CCNCC3)C(=O)O1 | 32 (≈ 105 µM) | 8 (≈ 26.4 µM) | 8 (≈ 26.4 µM) | 32 (≈ 105 µM) | > 64 | 64 (≈ 211 µM) | > 64 | – |
| CC(=O)NC[C@H]1CN(c2ccc3c(c2)CCCN(C(C)=O)C3)C(=O)O1 | 8 (≈ 23.2 µM) | 4 (≈ 11.6 µM) | 2 (≈ 5.79 µM) | 8 (≈ 23.2 µM) | > 64 | – | – | – |
| CC(=O)NC[C@H]1CN(c2ccc3c(c2)CCCCN3C(=O)OCc2ccccc2)C(=O)O1 | > 64 | > 64 | > 64 | > 64 | > 64 | – | > 64 | – |
| CC(=O)NC[C@H]1CN(c2ccc3c(c2)CCCCN3C(=O)CO)C(=O)O1 | 64 (≈ 177 µM) | 8 (≈ 22.1 µM) | 8 (≈ 22.1 µM) | 64 (≈ 177 µM) | > 64 | 32 (≈ 88.5 µM) | > 64 | – |
| CC(=O)NC[C@H]1CN(c2ccc3c(c2)CCCCN3C=O)C(=O)O1 | 2 (≈ 6.04 µM) | < 0.05 | < 0.05 | 2 (≈ 6.04 µM) | 16 (≈ 48.3 µM) | 2 (≈ 6.04 µM) | 4 (≈ 12.1 µM) | – |
| CC(=O)NC[C@H]1CN(c2ccc3c(c2)CCCN(C(=O)Nc2ccccc2)C3)C(=O)O1 | 4 (≈ 9.47 µM) | 4 (≈ 9.47 µM) | 1 (≈ 2.37 µM) | 16 (≈ 37.9 µM) | 64 (≈ 151 µM) | – | – | – |
| CC(=O)NC[C@H]1CN(c2ccc3c(c2)CCN(C(=O)Oc2ccccc2)CC3)C(=O)O1 | 4 (≈ 9.45 µM) | 2 (≈ 4.72 µM) | 2 (≈ 4.72 µM) | 4 (≈ 9.45 µM) | > 64 | – | – | – |
| CC(=O)NC[C@H]1CN(c2ccc3c(c2)CCN(S(C)(=O)=O)CC3)C(=O)O1 | 32 (≈ 83.9 µM) | 16 (≈ 41.9 µM) | 8 (≈ 21 µM) | 16 (≈ 41.9 µM) | 32 (≈ 83.9 µM) | – | > 64 | – |
| CC(=O)NC[C@H]1CN(c2ccc3c(c2)CCN(C(=O)c2ccccc2)CC3)C(=O)O1 | 2 (≈ 4.91 µM) | 1 (≈ 2.45 µM) | 1 (≈ 2.45 µM) | 8 (≈ 19.6 µM) | > 64 | – | – | – |
| CC(=O)NC[C@H]1CN(c2ccc3c(c2)CCN(C(=O)Cc2ccccc2)CC3)C(=O)O1 | 2 (≈ 4.74 µM) | 1 (≈ 2.37 µM) | 1 (≈ 2.37 µM) | 4 (≈ 9.49 µM) | > 64 | – | – | – |
| CC(=O)NC[C@H]1CN(c2ccc3c(c2)CCN(C(C)=O)CC3)C(=O)O1 | 2 (≈ 5.79 µM) | 1 (≈ 2.9 µM) | 1 (≈ 2.9 µM) | 4 (≈ 11.6 µM) | 64 (≈ 185 µM) | – | – | – |
| CC(=O)NC[C@H]1CN(c2ccc3c(c2)CCCN(C(=O)NCCc2ccccc2)C3)C(=O)O1 | 32 (≈ 71 µM) | 32 (≈ 71 µM) | 8 (≈ 17.8 µM) | 64 (≈ 142 µM) | > 64 | – | – | – |
| CC(=O)NC[C@H]1CN(c2ccc3c(c2)N(C=O)CCCC3)C(=O)O1 | > 64 | > 64 | > 64 | > 64 | > 64 | – | > 64 | – |
| CC(=O)NC[C@H]1CN(c2ccc3c(c2)CCCN(C(=O)Cc2ccccc2)C3)C(=O)O1 | 16 (≈ 38 µM) | 8 (≈ 19 µM) | 4 (≈ 9.49 µM) | 32 (≈ 75.9 µM) | > 64 | – | – | – |
| CC(=O)NC[C@H]1CN(c2ccc3c(c2)CCCN(C=O)C3)C(=O)O1 | 2 (≈ 6.04 µM) | 2 (≈ 6.04 µM) | 1 (≈ 3.02 µM) | 1 (≈ 3.02 µM) | 32 (≈ 96.6 µM) | 1 (≈ 3.02 µM) | 4 (≈ 12.1 µM) | 8.1 |
| CC(=O)NC[C@H]1CN(c2ccc3c(c2)CCCCN3)C(=O)O1 | 64 (≈ 211 µM) | 16 (≈ 52.7 µM) | 16 (≈ 52.7 µM) | 64 (≈ 211 µM) | > 64 | 32 (≈ 105 µM) | > 64 | – |
| CC(=O)NC[C@H]1CN(c2ccc3c(c2)CCN(C=O)CC3)C(=O)O1 | 4 (≈ 12.1 µM) | < 0.05 | < 0.05 | 4 (≈ 12.1 µM) | > 64 | 2 (≈ 6.04 µM) | 8 (≈ 24.1 µM) | – |
